Laboratory results from patent US5006515A, “Pharmaceuticals, phosphorus-containing 2-isoxazolines and isoxazoles contained therein” (Hoechst Aktiengesellschaft, priority 1987, dated 1991).
Like-named read-outs stand apart in the source and are kept apart here.

Key:
active Arthus reaction = assay: Active Arthus reaction in the rat; assay type: in vivo, Sprague-Dawley rats
Experimental: The experimental animals used were female and male Sprague-Dawley rats with a body weight between 80 and 100 g which received subcutaneous injections into the tail-head of 0.5 ml of an emulsion of pertussis vaccine and ovalbumin in liquid paraffin. After two weeks, the rats were divided into groups each of 8 animals. 24 hours and 1 hour before induction of the Arthus reaction by injection of 0.1 ml of a 0.4% strength ovalbumin solution into the right hind paw, the particular test substance or the pure vehicle (positive control) was administered orally, sodium chloride solution was injected into the left paw. One group of unsensitized animals (negative control group) was likewise treated with ovalbumin in order to be able to rule out nonspecific reactions to the protein. The parameter used for measuring the action of the product was the percentage change in the increase in paw volume compared with that in the control group which was sensitized but untreated (positive control) 4 hours after ovalbumin challenge, when the swelling had reached its maximum.

Acute toxicity = assay: Acute toxicity; parameters: species or system mice; settings: mouse, in vivo, single dose, mortality within 7 days
Experimental: The LD50 values were determined by the standard method via the mortality occurring within 7 days in NMRI (Naval Medical Research Institute) mice (6 animals per dose) after a single intraperitoneal (i.p.) or intravenous (i.v.) dose.

leucine aminopeptidase = assay: Inhibition of leucine aminopeptidase; assay type: biochemical; settings: substrate L-leucine 4-nitroanilide
Experimental: The activity of the enzyme aminopeptidase B was determined photometrically using the substrate L-lysine 2-naphthylamide at room temperature. […] In the same way, the inhibition of leucine aminopeptidase was investigated using L-leucine 4-nitroanilide as enzyme substrate. The IC50 values are compiled in Table 6.

[1] = Rattus norvegicus, po, 4 h, oral dose 50 mg/kg, 4 h after ovalbumin challenge
[2] = Rattus norvegicus, po, 4 h, read-out: Active Arthus reaction % change
[3] = Rattus norvegicus, po, 4 h, oral dose 35 mg/kg, 4 h after ovalbumin challenge, read-out: Active Arthus reaction % change

## O=P(O)(O)c1cc(-c2ccncc2)no1 [Example 51]
Active Arthus reaction; [1]
  change in vivo at 50 mg/kg: 17%
Acute toxicity; iv
  LD50 at 168 h: > 200 mg/kg

## O=P(O)(O)C1CC(C=Cc2ccccc2)=NO1 (centres unmarked) [Example 52]
Active Arthus reaction; [1]
  change in vivo at 50 mg/kg: -15%

## CCOP(=O)(C1CC(c2ccccc2)=NO1)N1CCCC1 (centres unmarked) [Example 55, 3-Phenyl-2-isoxazolin-5-yl(P-ethoxy)phosphonic acid pyrrolidide]
Active Arthus reaction; Rattus norvegicus, oral dose 70 mg/kg, 4 h after ovalbumin challenge, read-out: Active Arthus reaction % change
  change in vivo at 70 mg/kg: -23%
Acute toxicity; iv
  LD50 at 168 h: > 200 mg/kg

## CCOP(=O)(NCC(=O)OCc1ccccc1)C1CC(c2ccccc2)=NO1 (centres unmarked) [Example 56, N-[3-Phenyl-2-isoxazolin-5-yl(P-ethoxy)phosphonoyl]glycine benzyl ester]
Active Arthus reaction; Rattus norvegicus, oral dose 100 mg/kg, 4 h after ovalbumin challenge, read-out: Active Arthus reaction % change
  change in vivo at 100 mg/kg: 35%
Acute toxicity; ip
  LD50 at 168 h: > 1200 mg/kg

## CN(C)P(=O)(C1CC(c2ccccc2)=NO1)N(C)C (centres unmarked) [Example 59, 3-Phenyl-2-isoxazolin-5-ylphosphonic tetra methyldiamide]
Active Arthus reaction; [1]
  change in vivo at 50 mg/kg: -25%
Acute toxicity; iv
  LD50 at 168 h: > 200 mg/kg

## CC(C)(C)C1=NOC(P(C)(=O)O)C1 (centres unmarked) [Example 64, 3-tert.Butyl-2-isoxazolin-5-yl(P-methyl)phosphinic acid]
Active Arthus reaction; [2]
  change in vivo at 20 mg/kg: -59%
Acute toxicity; iv
  LD50 at 168 h: > 200 mg/kg

## COP(=O)(OC)C1CC(c2ccc(F)cc2)=NO1 (centres unmarked) [Example 65]
Acute toxicity; ip
  LD50 at 168 h: > 300 mg/kg

## COC(=O)c1ccc(C2=NOC(P(=O)(OC)OC)C2)cc1 (centres unmarked) [Example 66, Dimethyl 3-(4-methoxycarbonylphenyl)-2-isoxazolin-5-ylphosphonate]
Active Arthus reaction; Rattus norvegicus, oral dose 50 mg/kg, 4 h after ovalbumin challenge
  change in vivo at 50 mg/kg: -28%

## O=P(O)(O)C1CC(c2ccc(F)cc2)=NO1 (centres unmarked) [Example 67, 3-(4-Fluorophenyl)-2-isoxazolin-5-ylphosphonic acid]
Active Arthus reaction; [1]
  change in vivo at 50 mg/kg: -35%
Leucine aminopeptidase
  Leucine aminopeptidase IC50: 57 μug/ml

## O=[N+]([O-])c1ccc(C2=NOC(P(=O)(O)O)C2)cc1 (centres unmarked) [Example 69, 3-(4-Nitrophenyl)-2-isoxazolin-5-ylphosphonic acid]
Active Arthus reaction; [1]
  change in vivo at 50 mg/kg: -20%
Acute toxicity; iv
  LD50 at 168 h: > 100 mg/kg
Leucine aminopeptidase
  Leucine aminopeptidase IC50: 27 μug/ml

## Br.CN(C)c1ccc(C2=NOC(P(=O)(O)O)C2)cc1 (centres unmarked) [Example 71, 3-(4-Dimethylaminophenyl)-2-isoxazolin-5-ylphosphonic acid hydrobromide]
Active Arthus reaction; [2]
  change in vivo at 70 mg/kg: -10%
Acute toxicity; ip
  LD50 at 168 h: 150 to 300 mg/kg
Leucine aminopeptidase
  Leucine aminopeptidase IC50: 37 μug/ml

## O=P(O)(O)C1CC(c2ccccc2O)=NO1 (centres unmarked) [Example 73, 3-(2-Hydroxyphenyl)-2-isoxazolin-5-ylphosphonic acid]
Active Arthus reaction; [3]
  change in vivo at 35 mg/kg: -44%
Acute toxicity; ip
  LD50 at 168 h: 150 to 300 mg/kg

## O=P(O)(O)C1CC(c2cccs2)=NO1 (centres unmarked) [Example 75, 3-(2-Thienyl)-2-isoxazolin-5-ylphosphonic acid]
Active Arthus reaction; [2]
  change in vivo at 35 mg/kg: -26%
Acute toxicity; iv
  LD50 at 168 h: > 100 mg/kg
Leucine aminopeptidase
  Leucine aminopeptidase IC50: 79 μug/ml

## CC(C)(C)c1cc(P(=O)(O)O)on1 [Example 77, Diammonium 3-tert.butyl-5-isoxazolylphosphonate]
Active Arthus reaction; [2]
  change in vivo at 35 mg/kg: -20%

## CP(=O)(O)CC1CC(Cl)=NO1 (centres unmarked) [Example 79, 3-Chloro-2-isoxazolin-5-ylmethyl(P-methyl)phosphinic acid]
Active Arthus reaction; [2]
  change in vivo at 70 mg/kg: -24%

## O=C(O)c1ccc(C2=NOC(P(=O)(O)O)C2)cc1 (centres unmarked) [Example 87]
Active Arthus reaction; [3]
  change in vivo at 35 mg/kg: -29%

## O=P(O)(O)C1CC(c2cccnc2)=NO1 (centres unmarked) [Example 88]
Active Arthus reaction; [1]
  change in vivo at 50 mg/kg: -50%

## COP(=O)(OC)C1CC(C(C)(C)O)=NO1 (centres unmarked) [Example 90]
Active Arthus reaction; oral dose 50 mg/kg, 4 h after ovalbumin challenge
  Active Arthus reaction % change: -31%

## CC(C)(C)C1=NOC(CP(C)(=O)O)C1 (centres unmarked) [Example 99]
Active Arthus reaction; [2]
  change in vivo at 35 mg/kg: -32%
Acute toxicity; iv
  LD50 at 168 h: > 100 mg/kg

## CCOC(=O)C1=NOC(P(C)(=O)O)C1 (centres unmarked) [Example 101]
Active Arthus reaction; [2]
  change in vivo at 70 mg/kg: -32%
Acute toxicity; iv
  LD50 at 168 h: > 100 mg/kg

## CP(=O)(O)C1CC(C(=O)O)=NO1 (centres unmarked) [Example 102]
Active Arthus reaction; [2]
  change in vivo at 35 mg/kg: -35%

## CP(C)(=O)C1CC(c2ccccn2)=NO1 (centres unmarked) [Example 105]
Active Arthus reaction; [3]
  change in vivo at 35 mg/kg: -23%
Acute toxicity; iv
  LD50 at 168 h: > 100 mg/kg
